This is an account of results in patent publication US12187667B2, “Preparation systems and preparation methods for high-quality xylitol crystals” (ZHEJIANG HUAKANG PHARMACEUTICAL CO., LTD., priority 2022, dated 2025).

Series [1] can be described thus: Acidity (pH) of xylitol crystal by the Chinese Pharmacopoeia method, 10 g crystal to 20 ml water. It counts as physicochemical. The note with it: 10 g crystal to 20 ml pure water; for pH of xylitol after one month storage: crystal stored at room temperature for one month; for pH of xylitol after one week storage: crystal stored at room temperature for one week; for pH of xylitol: freshly prepared crystal. The method, then:
The acidity of prepared xylitol crystal B was measured according to the method in the Chinese Pharmacopoeia. Xylitol solution was prepared with pure water in a proportion of 10 g crystal to 20 ml water. The pH of the xylitol solution in this Example was measured to be 6.06. After the obtained xylitol crystal B were stored at room temperature for one week, the pH of the xylitol solution was measured to be 6.03 using the same method. After the xylitol crystal was stored at room temperature for one month, the pH of the xylitol solution was measured to be 6.01 using the same method. The acidity of prepared xylitol crystal B was measured according to the method in the Chinese Pharmacopoeia. Xylitol solution was prepared with pure water in a proportion of 10 g crystal to 20 ml water. The pH of the xylitol solution in this Example was measured to be 6.12. After the obtained xylitol crystal B was stored at room temperature for one week, the pH of the xylitol solution was measured to be 6.08 using the same method. After the xylitol crystal was stored at room temperature for one month, the pH of the xylitol solution was measured to be 6.05 using the same method. The acidity of prepared xylitol crystal B was measured according to the method in the Chinese Pharmacopoeia. Xylitol solution was prepared with pure water in a proportion of 10 g crystal to 20 ml water. The pH of the xylitol solution in this Example was measured to be 6.09. After the obtained xylitol crystal B was stored at room temperature for one week, the pH of the xylitol solution was measured to be 6.07 using the same method. After the xylitol crystals were stored at room temperature for one month, the pH of the xylitol solution was measured to be 6.05 using the same method. The acidity of prepared xylitol crystal was measured according to the method in the Chinese Pharmacopoeia. Xylitol solution was prepared with pure water in a proportion of 10 g crystal to 20 ml water. The pH of the xylitol solution in this comparative example was measured to be 5.02. After the obtained xylitol crystals was stored at room temperature for one week, the pH of the xylitol solution was measured to be 4.85 using the same method. After the xylitol crystal was stored at room temperature for one month, the pH of the xylitol solution was measured to be 4.64 using the same method. The acidity of prepared xylitol crystal was measured according to the method in the Chinese Pharmacopoeia. Xylitol solution was prepared with pure water in a proportion of 10 g crystal to 20 ml water. The pH of the xylitol solution in this Contrast was measured to be 5.04. After the obtained xylitol crystal was stored at room temperature for one week, the pH of the xylitol solution was measured to be 4.81 using the same method. After the xylitol crystal was stored at room temperature for one month, the pH of the xylitol solution was measured to be 4.68 using the same method. The acidity of prepared xylitol crystal was measured according to the method in the Chinese Pharmacopoeia. Xylitol solution was prepared with pure water in a proportion of 10 g crystal to 20 ml water. The pH of the xylitol solution in this comparative example was measured to be 5.03. After the obtained xylitol crystal was stored at room temperature for one week, the pH of the xylitol solution was measured to be 4.90 using the same method. After the xylitol crystal was stored at room temperature for one month, the pH of the xylitol solution was measured to be 4.73 using the same method.

The conditions of series [2]: cited from earlier work.
Series [3] is described as follows: pH of xylitol crystal prepared from xylitol solutions with different compositions. It is filed as physicochemical. Conditions: crystal prepared from xylitol solution of the stated composition. The source says:
In the production process of xylitol, there are two main factors can affect the pH of the product, one of which is ion exchange process. When xylitol solution passes through cation and anion exchange columns, H^+ and OH^− in resins are exchanged out, respectively. Due to the difference of exchange capacity between cation exchange column and anion exchange column, xylitol crystal products may have different pH. The other factor affecting the pH of xylitol product is the difference in composition of xylitol solution, which leads to a great difference in the pH of xylitol crystal.

Series [4] can be described thus: pH of crude xylitol crystal after first crystallization. The note with it: after first centrifuge and fluidization drying, before recrystallization. It counts as physicochemical. The procedure: Step 12, constant vacuum degree of the first crystallization kettle 7 was maintained at −0.095 MPa to further evaporate the xylitol concentrate solution. When temperature of the first crystallization kettle 7 dropped to 65° C., 0.001% xylitol crystal seeds (80-100 mesh) were added, and the system was maintained at constant temperature of 65° C. for evaporation and crystallization for 8 h. Finally, a crude xylitol crystal with purity of 99.5% and pH of 4.87 was obtained by centrifugal separation treatment of the first centrifuge 8 and fluidization drying treatment of the fluidization drying bed 9. At the same time, the primary centrifugal mother liquor C with purity of 90% obtained by the centrifugal separation treatment of the first centrifuge 8 was backset to the blending tank 1.
Step 22, constant vacuum degree of the first crystallization kettle 7 was maintained at −0.095 MPa to further evaporate the xylitol concentrate solution. When temperature of the first crystallization kettle 7 dropped to 64° C., 0.001% xylitol crystal seeds (100-120 mesh) were added, and the system was maintained at constant temperature of 64° C. for evaporation and crystallization for 12 h. Finally, crude xylitol crystal with purity of 99.6% and pH of 4.9 was obtained by centrifugal separation treatment of the first centrifuge 8 and fluidization drying treatment of the fluidization drying bed 9. At the same time, the primary centrifugal mother liquor C with purity of 89.5% obtained by the centrifugal separation treatment of the first centrifuge 8 was backset to the blending tank 1.
Step 32, constant vacuum degree of the first crystallization kettle 7 was maintained at −0.095 MPa to further evaporate the xylitol concentrate solution. When temperature of the first crystallization kettle 7 dropped to 66° C., 0.002% xylitol crystal seeds (60-80 mesh) were added, and the system was maintained at constant temperature of 66° C. for evaporation and crystallization for 10 h. […]

[5] abbreviates: listed as Comparative Example 1.
Where [6] appears, read: listed as Comparative Example 2.
Setting [7] is: listed as Comparative Example 3.

For the compound `OC[C@@H](O)[C@H](O)[C@@H](O)CO` [compound 1, xylitol], in series [1], the “pH of xylitol after one month storage” value is on record as 4.64, the “pH of xylitol after one week storage” value was found to be 4.85 and the pH of xylitol stood at 5.02. Besides, in series [1] (setting [5]), the “pH of xylitol after one month storage” value came out at 4.64, the “pH of xylitol after one week storage” value is 4.85 and the pH of xylitol is 5.02.
On to `OC[C@@H](O)[C@H](O)[C@@H](O)CO` [Example 2, xylitol], for which, in series [1], the “pH of xylitol after one month storage” value was 6.05, the “pH of xylitol after one week storage” value is given as 6.08 and the pH of xylitol is on record as 6.12.
The like results for `OC[C@@H](O)[C@H](O)[C@@H](O)CO` [Example 1, xylitol] were, in that order, 6.01, 6.03 and 6.06.
For the compound `OC[C@@H](O)[C@H](O)[C@@H](O)CO` [compound 2, xylitol], in series [1], the “pH of xylitol after one month storage” value stood at 4.68, the “pH of xylitol after one week storage” value is 4.81 and the pH of xylitol was determined as 5.04. In addition, in series [1] (setting [6]), the “pH of xylitol after one month storage” value is given as 4.68, the “pH of xylitol after one week storage” value is on record as 4.81 and the pH of xylitol amounted to 5.04.
Consider `OC[C@@H](O)[C@H](O)[C@@H](O)CO` [Xylitol], for which the “Acidity coefficient (pKa)” value in series [2] is listed as 13.24 ± 0.2.
As to `OC[C@@H](O)[C@H](O)[C@@H](O)CO` [100% xylitol, xylitol], the “pH of xylitol crystal” value in series [3] was 6.02.
Consider `O=C[C@H](O)[C@@H](O)[C@H](O)CO` [Xylose], for which, in series [2], the “Acidity coefficient (pKa)” value was 12.14.
Consider `OC[C@@H](O)[C@H](O)[C@@H](O)CO` [Example 2 crude xylitol crystal, xylitol], for which, in series [4], the “pH of crude xylitol crystal” value is 4.9.
On the same count and under the same terms, then `OC[C@@H](O)[C@H](O)[C@@H](O)CO` [Example 1 crude xylitol crystal, xylitol], with 4.87.
With `O=C[C@@H](O)[C@H](O)[C@H](O)CO` [Arabinose], the “Acidity coefficient (pKa)” value in series [2] was 12.46 ± 0.2.
Take `OC[C@@H](O)[C@H](O)[C@@H](O)CO` [Example 3 crude xylitol crystal, xylitol]: the “pH of crude xylitol crystal” value in series [4] amounted to 4.99.
As to `OC[C@@H](O)[C@H](O)[C@@H](O)CO` [compound 3, xylitol], in series [1], the “pH of xylitol after one month storage” value came out at 4.73, the “pH of xylitol after one week storage” value is listed as 4.90 and the pH of xylitol came out at 5.03. In series [1] (setting [7]), the “pH of xylitol after one month storage” value turned out to be 4.73, the “pH of xylitol after one week storage” value was 4.90 and the pH of xylitol turned out to be 5.03.
On to `O=C[C@H](O)[C@@H](O)[C@@H](O)[C@H](O)CO` [galactose], for which the “Acidity coefficient (pKa)” value in series [2] is given as 12.35.
With `OC[C@@H](O)[C@H](O)[C@@H](O)CO` [Example 3, xylitol], in series [1], the “pH of xylitol after one month storage” value was 6.05, the “pH of xylitol after one week storage” value amounted to 6.07 and the pH of xylitol is 6.09.
